The compounds below were run against GST-Bc1-2 (Homo sapiens, UniProt P10415) (assay: Time Resolved-Fluorescence Resonance Energy Transfer (TR-FRET) Bcl-2 binding assay with F-Bak peptide probe). Conditions: GST-Bcl-2 1 nM, F-Bak probe 100 nM, Tb-anti-GST 1 nM; '<' = below limit of detection; read-out: TR-FRET Bcl-2 Binding Ki.
Sequence of GST-Bc1-2 (P10415 whole entry): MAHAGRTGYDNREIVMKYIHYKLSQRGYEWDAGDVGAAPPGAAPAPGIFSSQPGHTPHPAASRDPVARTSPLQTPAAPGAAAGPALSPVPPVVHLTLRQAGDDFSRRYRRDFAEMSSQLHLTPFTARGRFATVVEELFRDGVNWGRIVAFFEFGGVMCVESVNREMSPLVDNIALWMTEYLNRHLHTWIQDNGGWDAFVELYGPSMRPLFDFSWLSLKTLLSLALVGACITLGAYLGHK

SMILES | Ki [nM]
CC1(C)CCC(CN2CCN(c3ccc(C(=O)NS(=O)(=O)c4ccc(OCC5CCC6(CC5)COC6)c([N+](=O)[O-])c4)c(Oc4cnc5[nH]ccc5c4)c3)CC2)=C(c2ccc(Cl)cc2)C1 [Example 351, 4-(4-{[2-(4-chlorophenyl)-4,4-dimethylcyclohex-1-en-1-yl]methyl}piperazin-1-yl)-N-{[3-nitro-4-(2-oxaspiro[3.5]non-7-ylmethoxy)phenyl]sulfonyl}-2-(1H-pyrrolo[2,3-b]pyridin-5-yloxy)benzamide] | < 0.01
CC1(C)CCC(CN2CCN(c3ccc(C(=O)NS(=O)(=O)c4ccc(NCC5CN(C6COC6)C5)c([N+](=O)[O-])c4)c(Oc4cnc5[nH]ccc5c4)c3)CC2)=C(c2ccc(Cl)cc2)C1 [Example 162, 4-(4-{[2-(4-chlorophenyl)-4,4-dimethylcyclohex-1-en-1-yl]methyl}piperazin-1-yl)-N-[(3-nitro-4-{[(1-oxetan-3-ylazetidin-3-yl)methyl]amino}phenyl)sulfonyl]-2-(1H-pyrrolo[2,3-b]pyridin-5-yloxy)benzamide] | < 0.01
CC1(C)CCC(CN2CCN(c3ccc(C(=O)NS(=O)(=O)c4ccc(N[C@@H]5CCN(CC#N)C5)c([N+](=O)[O-])c4)c(Oc4cnc5[nH]ccc5c4)c3)CC2)=C(c2ccc(Cl)cc2)C1 [Example 262, 4-(4-{[2-(4-chlorophenyl)-4,4-dimethylcyclohex-1-en-1-yl]methyl}piperazin-1-yl)-N-[(4-{[(3R)-1-(cyanomethyl)pyrrolidin-3-yl]amino}-3-nitrophenyl)sulfonyl]-2-(1H-pyrrolo[2,3-b]pyridin-5-yloxy)benzamide] | < 0.01
CC1(C)CCC(CN2CCN(c3ccc(C(=O)NS(=O)(=O)c4ccc(OCC5(F)CCOCC5)nc4)c(Oc4cnc5[nH]ccc5c4)c3)CC2)=C(c2ccc(Cl)cc2)C1 [Example 251, 4-(4-{[2-(4-chlorophenyl)-4,4-dimethylcyclohex-1-en-1-yl]methyl}piperazin-1-yl)-N-({6-[(4-fluorotetrahydro-2H-pyran-4-yl)methoxy]pyridin-3-yl}sulfonyl)-2-(1H-pyrrolo[2,3-b]pyridin-5-yloxy)benzamide] | 0.571
CC1(C)CCC(CN2CCN(c3ccc(C(=O)NS(=O)(=O)c4ccc(NCCCN(CC(F)(F)F)C5CC5)c([N+](=O)[O-])c4)c(Oc4cnc5[nH]ccc5c4)c3)CC2)=C(c2ccc(Cl)cc2)C1 [Example 308, 4-(4-{[2-(4-chlorophenyl)-4,4-dimethylcyclohex-1-en-1-yl]methyl}piperazin-1-yl)-N-{[4-({3-[cyclopropyl(2,2,2-trifluoroethyl)amino]propyl}amino)-3-nitrophenyl]sulfonyl}-2-(1H-pyrrolo[2,3-b]pyridin-5-yloxy)benzamide] | 0.141
C#Cc1cc(S(=O)(=O)NC(=O)c2ccc(N3CCN(CC4=C(c5ccc(Cl)cc5)CC(C)(C)CC4)CC3)cc2Oc2cnc3[nH]ccc3c2)cnc1OCC1CCOCC1 [Example 69, 4-(4-{[2-(4-chlorophenyl)-4,4-dimethylcyclohex-1-en-1-yl]methyl}piperazin-1-yl)-N-{[5-ethynyl-6-(tetrahydro-2H-pyran-4-ylmethoxy)pyridin-3-yl]sulfonyl}-2-(1H-pyrrolo[2,3-b]pyridin-5-yloxy)benzamide] | 1.16
CC1(C)CCC(CN2CCN(c3ccc(C(=O)NS(=O)(=O)c4ccc(NC5CCN(C(C)(C)C)CC5)c([N+](=O)[O-])c4)c(Oc4cnc5[nH]ccc5c4)c3)CC2)=C(c2ccc(Cl)cc2)C1 [Example 227, N-({4-[(1-tert-butylpiperidin-4-yl)amino]-3-nitrophenyl}sulfonyl)-4-(4-{[2-(4-chlorophenyl)-4,4-dimethylcyclohex-1-en-1-yl]methyl}piperazin-1-yl)-2-(1H-pyrrolo[2,3-b]pyridin-5-yloxy)benzamide] | < 0.01

Reference: patent US8580794B2 (AbbVie Inc., priority 2009, dated 2013)
